Legend:
Format in all cases: functional, organism-based
[1] = species on record: Mus musculus; test: Compound was evaluated for inhibitory activity against production of nitric oxide (NO) induced by interferon-gamma (IFN-gamma) in mouse macrophages at a concentration of 0.01-40 uM; Toxic above 1 uM and not active below 1 uM
[2] = species on record: Mus musculus; test: Compound was evaluated for inhibitory activity against production of nitric oxide (NO) induced by interferon-gamma (IFN-gamma) in mouse macrophages at a concentration of 0.01-40 uM
[3] = species on record: Mus musculus; test: Compound was evaluated for inhibitory activity against production of nitric oxide (NO) induced by interferon-gamma (IFN-gamma) in mouse macrophages
[4] = species on record: Mus musculus; test: Compound was evaluated for inhibitory activity against production of nitric oxide (NO) induced by interferon-gamma (IFN-gamma) in mouse macrophages at a concentration of 0.1-1 uM

Row | Structure (SMILES) | IC50 [2] | also measured
1 | CC1(C)CC[C@]2(C(=O)O)CC[C@]3(C)C(=CC[C@@H]4[C@@]5(C)C=C(C=O)C(=O)C(C)(C)[C@@H]5CC[C@]43C)C2C1 (stereo not given in full) |  | IC50 [1]: > 1 µM
2 | CC1(C)CC[C@]2(C(=O)O)CC[C@]3(C)[C@H](C(=O)C=C4[C@@]5(C)C=CC(=O)C(C)(C)[C@@H]5CC[C@]43C)[C@@H]2C1 | 0.17 µM | 
3 | CC1(C)CC[C@]2(C(=O)O)CC[C@]3(C)C(=CC[C@@H]4[C@@]5(C)CC[C@H](O)C(C)(C)[C@@H]5CC[C@]43C)[C@@H]2C1 [OLEANOLIC_ACID] |  | IC50 [3]: > 40 µM
4 | CC1(C)CC[C@]2(C(=O)O)CC[C@]3(C)C(=CC[C@@H]4[C@@]5(C)C=C(O)C(=O)C(C)(C)[C@@H]5CC[C@]43C)C2C1 (stereo not given in full) | 37 µM | 
5 | C[C@@H]1C[C@H]2[C@@H]3CCC4=CC(=O)C=C[C@]4(C)[C@@]3(F)[C@@H](O)C[C@]2(C)[C@@]1(O)C(=O)CO [DEXAMETHASONE] |  | IC50 [3]: 0.0003 µM
6 | CC1(C)CC[C@]2(C(=O)O)CC[C@]3(C)C(=CC(=O)[C@@H]4[C@@]5(C)C=CC(=O)C(C)(C)[C@@H]5CC[C@]43C)C2C1 (stereo not given in full) | 1.4 µM | 
7 | CC1(C)CC[C@]2(C(=O)O)CC[C@]3(C)[C@H](C(=O)C=C4[C@@]5(C)C=C(C#N)C(=O)C(C)(C)[C@@H]5CC[C@]43C)[C@@H]2C1 [BARDOXOLONE] |  | IC50 [4]: 0.0004 µM
8 | CC1(C)CC[C@]2(C(=O)O)CC[C@]3(C)C(=CC[C@@H]4[C@@]5(C)C=C(C#N)C(=O)C(C)(C)[C@@H]5CC[C@]43C)C2C1 (stereo not given in full) | 0.6 µM | 
9 | CC1(C)CC[C@]2(C(=O)O)CC[C@]3(C)C(=CC[C@@H]4[C@@]5(C)C=CC(=O)C(C)(C)[C@@H]5CC[C@]43C)C2C1 (stereo not given in full) | 7.1 µM | 
10 | COC1=C[C@]2(C)[C@H]3CC=C4C5CC(C)(C)CC[C@]5(C(=O)O)CC[C@@]4(C)[C@]3(C)CC[C@H]2C(C)(C)C1=O (stereo not given in full) | 19 µM | 

From ChEMBL document CHEMBL1130601, “Design and synthesis of 2-cyano-3,12-dioxoolean-1,9-dien-28-oic acid, a novel and highly active inhibitor of nitric oxide production in mouse macrophages” (Bioorg Med Chem Lett, 1998)
